Tested on: ER at classical ERE
Test: Reporter genes containing classical EREs (ERE-coll60, ERE-tk) in cells with ER
Format: cell-based, human
Protocol: FIGS. 2A-2C show antiestrogen stimulation of expression in an intact AP-1 Site, but not at classical EREs. […] Representations, at left, show the human collagenase promoter (shaded) and the consensus AP-1 site. CAT activities were from cells maintained in the absence of hormone or saturating concentrations of ICI 164,384 (ICI, 1 μM), tamoxifen (5 μM) or estradiol ([…]). CAT activity is normalized to a transfection control with the actin promoter driving expression of βHCG. Single representative experiments are shown, error bars represent standard deviation of triplicate hormone treatments.
All reporter genes described below have been modified by digestion with EcoR I and Ndel to remove a AP-I site in the backbone of pUG. Thus, Coll73 and Coll60 are formerly_Coll73 and_Coll60 (Lopez et al. Mol. Cell. Biol. 13:3042-930 (1993)). Coll73-LUC was constructed by cloning a BamHI/Pvull fragment, that spanned the luciferase transcription unit, from pMG3 into coll73, which had been digested with BamHI and SmaI to remove the CAT transcription unit. EREcoll60 and EREcoll73 was prepared by ligation of a consensus ERE ([…], SEQ ID NO:3), into the HindIII site upstream of coll60 and coll73, respectively. All other reporter genes have been previously described (Webb et al. Mol. Endocrinol. 6:157-16725 (1992): and Lopez et al., supra).
Cells were maintained and transfected as previously described in Webb et al., supra. Hormones were added two hours after plating in the following concentrations, estradiol 100 nM, ICI 164,384 1 μM, tamoxifen 5 μM, to ensure saturation of the response. F9 cells were seeded at 30% confluence upon 1.5 cm dishes and transfected overnight by calcium phosphate coprecipitation with 5 μg reporter gene, 1 μg actin β-HCG, and 1 μg of HEO, 300 ng each of c-jun and c-fos expression vectors. The cells were glycerol shocked and refed in growth medium containing hormone or ethanolic vehicle. In transient transfections, optimal amounts of HEO were employed and were as follows: HeLa (5 μg); NIH3T3 (1 μg); HepG2 (1 μg); SHM (300 ng); SY5Y (300 ng); CEF (100 ng); CV-1 (3 μg); MDA453 (3 μg); CHO (100 ng) and F9 (1 μg).
CAT assays were carried out as described in Webb et al., except that the cells were harvested one to two days after transfection instead of three. CAT activities were defined as the increase in cpm per hour at room temperature (corrected for background) per 100 μl of cell extract, normalized to production of 100 standard units of βHCG, from a co-transfected reporter gene, actin-HCG. Luciferase assays were performed as described by Brasier et al. Methods Enzymol 216:386-97 (1992)) on similar extracts that were used for CAT assays. Light units were defined as the luciferase activity per 100 μl of cell extract per 100 standard units of βHCG. Relative luciferase activities were calculated with respect to the results that were obtained in the absence of ER and hormone, which was set at 1 unit. For the data presented in Table I triplicate points were determined. Standard deviations were less than 20%.
The activity of antiestrogens in the AP-1 pathway was also compared with their activity in the classical pathway. […] A promoter with both an ERE and an AP-1 site (ERE-coll73 FIG. 2C) gave a large estrogen response, but retained some response to antiestrogens. Another control reporter, in which the tk promoter was regulated by a classical ERE (ERE-tk FIG. 2C) was also activated by estrogen, but not by antiestrogens.

## C[C@]12CC[C@@H]3c4ccc(O)cc4CC[C@H]3[C@@H]1CC[C@@H]2O [estradiol, 17β-estradiol]
ERC1 cells
  estrogen response of EREΔcoll60 (classical ERE substituted for AP1 site): restored estrogen response
HeLa cells, FIG. 2C
  activation of ERE-tk: activated
